Common to all, as to type: cell-based
A short description of data set [1]: in vitro. The following applies: human. How it is done: (§1) N-Ac-CHAVC-NH2 (SEQ ID NO:10) and the control peptide N-Ac-CHGVC-NH2 (SEQ ID NO:20) were evaluated for possible cytotoxic effects on human microvascular endothelial (HMVEC; Clonetics), human umbilical vein endothelial (HUVEC; ATCC #CRL-1730), IAFp2 (human fibroblast cell line; Institute Armand-Frapier, Montreal, Quebec), WI-38 (human fibroblast cell line; ATCC #CCL-75), MDA-MB231 (human breast cancer cell line; ATCC #HTB-26), and PC-3 (human prostate cancer cell line; ATCC #CRL-1435) cells utilizing the MTT assay (Plumb et al., Cancer Res. 49:4435-4440, 1989). Neither of the peptides was cytotoxic at concentrations up to and including 100 μM. Similarly, neither of the peptides was capable of inhibiting the proliferation of the above cell lines at concentrations up to 100 μM, as judged by ^3H-thymidine incorporation assays.

Data set [2] can be described thus: in vitro. To be noted: human. How it is done: as §1
The source holds these as a separate data set.

The nature of data set [3]: in vitro. To be noted: human. How it is done:
as §1
This is another data set of the same source.

The nature of data set [4]: in vitro. The following applies: human. As for the experimental part: as §1
This is another data set of the same source.

The next data set addresses T1, chick N-cadherin (Gallus gallus, UniProt P10288).
T1 construct: expressed in transfected cells; host or cells: 3T3 fibroblasts
T1 sequence (P10288 165-912): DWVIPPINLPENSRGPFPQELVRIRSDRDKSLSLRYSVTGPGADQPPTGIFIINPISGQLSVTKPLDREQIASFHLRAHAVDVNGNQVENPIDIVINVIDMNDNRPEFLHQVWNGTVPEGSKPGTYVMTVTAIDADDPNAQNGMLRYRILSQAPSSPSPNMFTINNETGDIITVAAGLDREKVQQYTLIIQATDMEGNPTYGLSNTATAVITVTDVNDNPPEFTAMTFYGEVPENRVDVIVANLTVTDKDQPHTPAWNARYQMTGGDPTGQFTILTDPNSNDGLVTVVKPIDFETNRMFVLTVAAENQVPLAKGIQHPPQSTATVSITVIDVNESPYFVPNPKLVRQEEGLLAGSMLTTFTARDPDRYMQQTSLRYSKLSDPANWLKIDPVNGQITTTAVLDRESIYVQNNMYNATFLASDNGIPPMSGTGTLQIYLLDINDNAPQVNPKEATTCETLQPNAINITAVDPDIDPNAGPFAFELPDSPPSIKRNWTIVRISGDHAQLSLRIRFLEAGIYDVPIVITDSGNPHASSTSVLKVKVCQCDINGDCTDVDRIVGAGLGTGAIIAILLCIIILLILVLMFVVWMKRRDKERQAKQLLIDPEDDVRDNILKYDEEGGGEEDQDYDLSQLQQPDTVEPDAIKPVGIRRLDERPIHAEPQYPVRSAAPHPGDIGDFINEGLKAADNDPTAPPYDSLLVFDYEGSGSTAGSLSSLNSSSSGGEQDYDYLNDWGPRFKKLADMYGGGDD
The data set is described as follows: N-cadherin dependent neurite outgrowth of rat cerebellar neurons on N-cadherin expressing 3T3 cells (Example 14). To be noted: for inhibition at 250 µg/mL: NIH3T3, 250 μg/mL, 16-18 hours; for inhibitory activity on N-cadherin dependent neurite outgrowth, in words: Tables 8 and 9, 250 or 125 μg/mL; for reduction in inhibitory activity on flanking HAV with E-cadherin amino acids: Table 8, 250 μg/mL; for activity on N-cadherin dependent neurite outgrowth at lower concentration, in words: concentrations of 125 µg/mL or below. How it is done: Cell culture and neurite outgrowth assays. Co-cultures of cerebellar neurons on monolayers of control 3T3 cells and monolayers of transfected 3T3 cells that express physiological levels of chick N-cadherin or human L1 were established as previously described (Williams et al., Neuron 13:583-594, 1994). In brief, 80,000 3T3 cells (control and transfected) were plated into individual chambers of an eight-chamber tissue culture slide coated with polylysine and fibronectin and cultured in DMEM/10% FCS. After 24 hours, when confluent monolayers had formed, the medium was removed and 3000 cerebellar neurons isolated from post-natal day 2-3 rats were plated into each well in SATO media (Doherty et al., Nature 343:464-466, 1990) supplemented with 2% FCS. All of the test peptides were added immediately before the neurons as a 2×stock prepared in SATO/2% FCS. The co-cultures were maintained for 16-18 hours, at which time they were fixed and immunostained for GAP-43 which is present only in the neurons and delineates the neuritic processes. The mean length of the longest neurite per cell was measured for 150-200 neurons sampled in replicate cultures as previously described (Williams et al., Neuron 13:583-594, 1994). […] Dose-response curves were evaluated and the EC50 values determined.
Effects of cyclic HAV peptides on N-cadherin function. The ability of N-Ac-CHAVC-NH2 (SEQ ID NO:10; compound 1) to inhibit neurite outgrowth was initially tested. This cyclic peptide has the cadherin CAR sequence (HAV) and no flanking amino acid residues. Neurons were cultured on confluent monolayers of control (untransfected) and N-cadherin expressing 3T3 cells for 16-18 hours. The cells were then fixed and the length of the longest neurite on 150-200 neurons was determined by standard assay, as described above. FIG. 24 gives the mean neurite length in a representative experiment where cerebellar neurons have been cultured over control and N-cadherin expressing cells. In the absence of peptide, the mean length of the longest neurite per cell was approximately double on the N-cadherin expressing cells, as compared to 3T3 cells. This response requires N-cadherin function in both the neuron and transfected fibroblast.

Entries after “also recorded” stand apart in the source; their conditions may differ. Positions of bridges follow the written chain, without caps; N, C: chain ends. Residues, ends and D or L forms follow the SMILES beside them. A value given as a limit tells only on which side of the number the result lay.

In the case of `CC[C@H](C)[C@@H]1NC(=O)[C@H](CC(=O)O)NC(=O)[C@H](C(C)C)NC(=O)[C@H](C)NC(=O)[C@H](Cc2c[nH]cn2)NC(=O)[C@H](C)NC(=O)[C@@H](N)CSSC[C@@H](C(N)=O)NC1=O` (H-CAHAVDIC-NH2; disulfide 1-8), the 50% inhibitory concentration (IC50) in “in vitro [1]”, in the data set “in vitro [2]”, in the data set “in vitro [3]” and in the data set “in vitro [4]” was more than 100 µM throughout. Besides, the inhibition at 250 µg/mL against chick N-cadherin is -3.7 ± 2.9%. Besides, the “inhibitory activity on N-cadherin dependent neurite outgrowth, in words” value (“inhibitory activity … in words” below) is reported as “total loss of activity” at chick N-cadherin and “lost activity” against chick N-cadherin (listed as compound 15).
For the molecule `CC(C)[C@@H]1NC(=O)[C@H](C)NC(=O)[C@H](Cc2c[nH]cn2)NC(=O)[C@H](C)NC(=O)[C@@H](N)CSSC[C@@H](C(N)=O)NC(=O)[C@H](CC(=O)O)NC1=O` [H-CAHAVDC-NH2, H-Cys-Ala-His-Ala-Val-Asp-Cys-NH2] (H-CAHAVDC-NH2; disulfide 1-7), the half-maximal inhibitory concentration (IC50) in “in vitro [1]”, in the data set “in vitro [2]”, in the data set “in vitro [3]” and in the data set “in vitro [4]” was more than 100 µM in each case. Besides, at chick N-cadherin, the inhibition at 250 µg/mL turned out to be 1.3 ± 13%.
As for `CC(C)[C@@H]1NC(=O)CNC(=O)[C@H](Cc2c[nH]cn2)NC(=O)[C@H](C)NC(=O)[C@@H](N)CSSC[C@@H](C(N)=O)NC(=O)[C@H](CC(=O)O)NC1=O` [H-CAHGVDC-NH2, reference compound] (H-CAHGVDC-NH2; disulfide 1-7), the 50% inhibitory concentration (IC50) in the data set “in vitro [1]”, in “in vitro [2]”, in the data set “in vitro [3]” and in the data set “in vitro [4]” was more than 100 µM each time. The inhibition at 250 µg/mL against chick N-cadherin stood at 5.7 ± 7.8%.
`CC(=O)N[C@H]1CSSC[C@@H](C(N)=O)NC(=O)[C@H](CC(=O)O)NC(=O)[C@H](C(C)C)NC(=O)[C@H](C)NC(=O)[C@H](Cc2cnc[nH]2)NC1=O` [N-Ac-CHAVDC-NH2] (Ac-CHAVDC-NH2; disulfide 1-6) showed a concentration for a half-maximal effect (EC50) on chick N-cadherin (from dose-response curve) of 93 µM.
For the molecule `CC(=O)N[C@H]1CSSC[C@@H](C(N)=O)NC(=O)[C@H](CO)NC(=O)[C@H](C(C)C)NC(=O)CNC(=O)[C@H](Cc2c[nH]cn2)NC1=O` [N-Ac-CHGVSC-NH2, reference compound] (Ac-CHGVSC-NH2; disulfide 1-6), the IC50 in the data set “in vitro [1]”, in “in vitro [2]”, in the data set “in vitro [3]” and in the data set “in vitro [4]” was more than 100 µM each time. The inhibition at 250 µg/mL against chick N-cadherin is -6.7 ± 5.8%.
As to `CC(=O)N[C@H]1CSSC[C@@H](C(N)=O)NC(=O)[C@H](C(C)C)NC(=O)[C@H](C)NC(=O)[C@H](Cc2c[nH]cn2)NC(=O)[C@H](CO)NC1=O` [N-Ac-CSHAVC-NH2, N-Ac-Cys-Ser-His-Ala-Val-Cys-NH2] (Ac-CSHAVC-NH2; disulfide 1-6), the IC50 in “in vitro [1]”, in “in vitro [2]”, in “in vitro [3]” and in “in vitro [4]” was more than 100 µM each time. The inhibition at 250 µg/mL against chick N-cadherin turned out to be 11 ± 8.6%. The “reduction in inhibitory activity on flanking HAV with E-cadherin amino acids” value (“reduction in inhibitory activity” below) on chick N-cadherin was “complete”.
With `CC(=O)N[C@H]1CSSC[C@@H](C(N)=O)NC(=O)[C@H](C(C)C)NC(=O)CNC(=O)[C@H](Cc2c[nH]cn2)NC(=O)[C@H](CO)NC1=O` [N-Ac-CSHGVC-NH2, reference compound] (Ac-CSHGVC-NH2; disulfide 1-6), the half-maximal inhibitory concentration (IC50) in the data set “in vitro [1]”, in “in vitro [2]”, in the data set “in vitro [3]” and in the data set “in vitro [4]” was more than 100 µM throughout. In addition, the inhibition at 250 µg/mL on chick N-cadherin was 12.5 ± 7.5%.
For the molecule `CC(=O)N[C@H]1CSSC[C@@H](C(N)=O)NC(=O)[C@H](Cc2c[nH]cn2)NC(=O)CNC(=O)[C@H](C(C)C)NC1=O` [N-Ac-CVGHC-NH2, reference compound] (Ac-CVGHC-NH2; disulfide 1-5 (inferred)), the IC50 in “in vitro [1]”, in the data set “in vitro [2]”, in the data set “in vitro [3]” and in “in vitro [4]” was more than 100 µM in each case.
Consider `CC[C@H](C)[C@@H]1NC(=O)[C@H](CC(=O)O)NC(=O)[C@H](C(C)C)NC(=O)CNC(=O)[C@H](Cc2c[nH]cn2)NC(=O)[C@H](C)NC(=O)[C@@H](NC(C)=O)CSSC[C@@H](C(N)=O)NC1=O` [reference compound] (Ac-CAHGVDIC-NH2; disulfide 1-8), for which the IC50 in “in vitro [1]”, in “in vitro [2]”, in the data set “in vitro [3]” and in “in vitro [4]” was more than 100 µM each time. Besides, the inhibition at 250 µg/mL against chick N-cadherin came out at 4.8 ± 6.5%.
Regarding `CC[C@H](C)[C@@H]1NC(=O)[C@H](CC(=O)O)NC(=O)[C@H](C(C)C)NC(=O)CNC(=O)[C@H](Cc2c[nH]cn2)NC(=O)[C@H](C)NC(=O)[C@@H](N)CSSC[C@@H](C(N)=O)NC1=O` [reference compound] (H-CAHGVDIC-NH2; disulfide 1-8), the IC50 in “in vitro [1]”, in the data set “in vitro [2]”, in the data set “in vitro [3]” and in “in vitro [4]” was more than 100 µM in each case. Also, the inhibition at 250 µg/mL against chick N-cadherin amounted to 7.2 ± 8.1%.
For “N-Ac-CAHAVC-NH2 (disulfide 1-6 (inferred))”, in the data set with chick N-cadherin, the “activity on N-cadherin dependent neurite outgrowth at lower concentration, in words” value was “lost activity”.
“N-Ac-CHAVDINGC-NH2 (disulfide 1-9 (inferred))”: the “inhibitory activity … in words” value in the data set with chick N-cadherin is “completely abrogates activity”.
Consider “N-Ac-CHAVSSC-NH2 (disulfide 1-7 (inferred))”, for which, in the data set with chick N-cadherin, the “reduction in inhibitory activity” value is on record as “substantial”.
Take “N-Ac-CLRAHAVC-NH2 (disulfide 1-8 (inferred))”: in the data set with chick N-cadherin, the “inhibitory activity … in words” value was “detrimental affect”.
For “N-Ac-CLRAHAVDC-NH2 (disulfide 1-9 (inferred))”, in the data set with chick N-cadherin, the “inhibitory activity … in words” value is listed as “potent inhibitors of neurite outgrowth; also recorded: partial recovery of activity” and the “activity on N-cadherin dependent neurite outgrowth at lower concentration, in words” value was “lost activity”.
Take “N-Ac-CRAHAVDC-NH2 (disulfide 1-8 (inferred))”: in the data set with chick N-cadherin, the “inhibitory activity … in words” value is recorded as “completely eliminated inhibitory activity”.
Turning to “N-Ac-CSHAVSC-NH2 (disulfide 1-7 (inferred))”, the “reduction in inhibitory activity” value with chick N-cadherin is “complete”.

In general, IC50 refers to the concentration at which inhibition is half-maximal. Low readings indicate greater potency, high ones weaker potency. By inhibition is commonly meant the change of the read-out against control, counted positive when it falls. Usually EC50 stands for the concentration that produces a half-maximal response. A higher EC50 goes with weaker potency.

(Values after patent US20030224978A1, “Compounds and methods for modulating apoptosis” (McGill University, priority 1996, published 2003).)
